# Experimental data: patent US10668051B2, “Modulators of calcium release-activated calcium channel” (Rhizen Pharmaceuticals SA, priority 2009, dated 2020)
# Where a name gives a salt, the structure may show the parent alone.
# Target: CRAC channels (Homo sapiens (Human), UniProt Q96D31)
# Experiment: In-vitro CRAC channel inhibition assay in Jurkat cells (thapsigargin-induced calcium influx)
# Assay type: cell-based
# Method: 1A. In-Vitro CRAC Channel Inhibition Assay in Jurkat Cells
# Plate is incubated at 37° C./5% CO2 for 30 min followed by further 15 min incubation at room temperature. Test compounds (DMSO stocks diluted in Ca^2+ and Mg^2+ free Hanks buffer) at desired concentrations were added to the wells and incubated for 15 min. Thapsigargin (1 μM final concentration) was added to the wells and incubated for 15 min to inhibit the Sarco-endoplasmic reticulum Ca^2+ ATPase pump thereby depleting endoplasmic calcium and raising cytosolic calcium concentrations. Store-operated calcium entry was initiated by adding extracellular Ca^2+ to a final concentration of 1.8 mM. Fluorescence was monitored over 5 min on a plate reader (BMG Labtech., Germany) with excitation at 485 nm and; an emission wavelength at 520 nm. Data were analyzed using GraphPad Prism. IC50 for each compound was determined based on the percent inhibition of thapsigargin-induced calcium influx into cells.
# CRAC channels, sequence (Q96D31 whole entry): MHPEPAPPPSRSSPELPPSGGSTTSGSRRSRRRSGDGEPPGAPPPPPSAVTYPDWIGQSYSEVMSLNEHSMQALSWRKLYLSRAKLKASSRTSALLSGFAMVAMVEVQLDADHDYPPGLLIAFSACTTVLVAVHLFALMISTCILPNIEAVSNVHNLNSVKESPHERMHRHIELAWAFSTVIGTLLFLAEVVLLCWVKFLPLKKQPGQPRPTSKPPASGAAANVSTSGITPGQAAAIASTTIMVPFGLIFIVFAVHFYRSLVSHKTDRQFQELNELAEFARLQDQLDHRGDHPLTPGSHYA
inhibition at 1 µM,Molecule,% inhibition (1 uM)
–,"N-{4-[3-cyclopropyl-5-(difluoromethyl)-1H-pyrazol-1-yl]-3-fluorophenyl}-2,6-difluorobenzamide and N-{4-[5-cyclopropyl-3-(difluoromethyl)-1H-pyrazol-1-yl]-3-fluorophenyl}-2,6-difluorobenzamide [Example 135]",100%
86.6%,"Cc1ccccc1C(=O)Nc1ccc(-n2nc(C(F)(F)F)cc2C2CC2)c(F)c1 [Example 86, N-{4-[5-cyclopropyl-3-(trifluoromethyl)-1H-pyrazol-1-yl]-3-fluorophenyl}-2-methylbenzamide]",–
83.8%,"Cc1noc(C)c1C(=O)Nc1ccc(-n2nc(C(F)(F)F)cc2C2CC2)cc1 [Example 57, N-{4-[5-cyclopropyl-3-(trifluoromethyl)-1H-pyrazol-1-yl]phenyl}-3,5-dimethylisoxazole-4-carboxamide]",–
37.2%,"CS(=O)(=O)c1ccc(Cl)c(C(=O)Nc2ccc(-n3nc(C4CC4)cc3C3CC3)cc2)c1 [Example 13, 2-chloro-N-[4-(3,5-dicyclopropyl-1H-pyrazol-1-yl)phenyl)-5-(methylsulfonyl)benzamide]",–
72.3%,"O=C(Nc1ccc(-n2nc(C3CC3)cc2C2CC2)nc1)c1c(F)cccc1F [Example 45, N-[6-(3,5-dicyclopropyl-1H-pyrazol-1-yl)pyridin-3-yl]-2,6-difluorobenzamide hydrochloride]",–
29%,"O=C(CN1CCNCC1)Nc1ccc(-n2nc(C3CC3)cc2C2CC2)cc1 [Example 25, N-[4-(3,5-dicyclopropyl-1H-pyrazol-1-yl)phenyl]-2-(piperazin-1-yl)acetamide hydrochloride]",–
61.5%,"Cc1ncncc1C(=O)Nc1ccc(-n2nc(C(F)(F)F)cc2C2CC2)cc1 [Example 68, N-{4-[5-cyclopropyl-3-(trifluoromethyl)-1H-pyrazol-1-yl]phenyl}-4-methylpyrimidine-5-carboxamide]",–
38%,"O=C(Cc1ccncc1)Nc1ccc(-n2nc(C3CC3)cc2C2CC2)cc1 [Example 24, N-[4-(3,5-dicyclopropyl-1H-pyrazol-1-yl)phenyl]-2-(pyridin-4-yl)acetamide hydrochloride]",–
77%,"Cc1ccccc1C(=O)Nc1ccc(-n2nc(C3CC3)cc2C2CC2)c(F)c1 [Example 31, N-[4-(3,5-dicyclopropyl-1H-pyrazol-1-yl)-3-fluorophenyl]-2-methyl benzamide]",–
63.4%,"O=C(Nc1ccc(-n2nc(C3CC3)cc2C2CC2)nc1)c1cccc(F)c1F [Example 44, N-[6-(3,5-dicyclopropyl-1H-pyrazol-1-yl)pyridin-3-yl]-2,3-difluorobenzamide hydrochloride]",–
0%,"O=C(Cc1ccccn1)Nc1ccc(-n2nc(C(F)(F)F)cc2C2CC2)nc1 [Example 117, N-{6-[5-cyclopropyl-3-(trifluoromethyl)-1H-pyrazol-1-yl]pyridin-3-yl}-2-(pyridin-2-yl)acetamide hydrochloride]",–
66.3%,"O=C(Nc1ccc(-n2nc(C3CC3)cc2C2CC2)c(F)c1)c1c(Cl)cncc1Cl [Example 127, 3,5-dichloro-N-[4-(3,5-dicyclopropyl-1H-pyrazol-1-yl)-3-fluorophenyl]isonicotinamide]",–
81.6%,"Cc1ncsc1C(=O)Nc1ccc(-n2nc(C(F)(F)F)c(Cl)c2C2CC2)cc1 [Example 80, N-{4-[4-chloro-5-cyclopropyl-3-(trifluoromethyl)-1H-pyrazol-1-yl]phenyl}-4-methylthiazole-5-carboxamide]",–
83.7%,"Cc1ccccc1C(=O)Nc1ccc(-n2nc(C(F)(F)F)cc2C2CC2)cc1 [Example 60, N-{4-[5-cyclopropyl-3-(trifluoromethyl)-1H-pyrazol-1-yl]phenyl}-2-methylbenzamide]",–
43%,"O=C(CN1CCOCC1)Nc1ccc(-n2nc(C3CC3)cc2C2CC2)cc1 [Example 26, N-[4-(3,5-dicyclopropyl-1H-pyrazol-1-yl)phenyl]-2-morpholinoacetamide]",–
99%,"Cc1ccccc1C(=O)Nc1ccc(-n2nc(C3CC3)cc2C2CC2)cc1 [Example 7, N-[4-(3,5-dicyclopropyl-1H-pyrazol-1-yl)phenyl]-2-methylbenzamide]",–
100%,"Cc1oncc1C(=O)Nc1ccc(-n2nc(C(F)(F)F)cc2C2CC2)c(F)c1 [Example 84, N-{4-[5-cyclopropyl-3-(trifluoromethyl)-1H-pyrazol-1-yl]-3-fluorophenyl}-5-methylisoxazole-4-carboxamide]",–

inhibition at 1 µM,Molecule,% inhibition (1 uM)
63.6%,"O=C(Nc1ccc(-n2nc(C3CC3)cc2C2CC2)c(F)c1)c1cccc(F)c1F [Example 32, N-[4-(3,5-dicyclopropyl-1H-pyrazol-1-yl)-3-fluorophenyl]-2,3-difluorobenzamide]",–
5.62%,"Cc1ncncc1C(=O)Nc1cnc(-n2nc(C(F)(F)F)cc2C2CC2)nc1 [Example 133, N-{2-[5-cyclopropyl-3-(trifluoromethyl)-1H-pyrazol-1-yl]pyrimidin-5-yl}-4-methylpyrimidine-5-carboxamide]",–
93%,"Cc1nnsc1C(=O)Nc1ccc(-n2nc(C(F)(F)F)cc2C2CC2)nc1 [Example 101, N-{6-[5-cyclopropyl-3-(trifluoromethyl)-1H-pyrazol-1-yl]pyridin-3-yl}-4-methyl-1,2,3-thiadiazole-5-carboxamide]",–
68%,"O=C(Cc1ccncc1)Nc1ccc(-n2nc(C(F)(F)F)cc2C2CC2)cc1 [Example 73, N-{4-[5-cyclopropyl-3-(trifluoromethyl)-1H-pyrazol-1-yl]phenyl}-2-(pyridin-4-yl)acetamide hydrochloride]",–
71.9%,"CS(=O)(=O)c1ccc(C(=O)Nc2ccc(-n3nc(C4CC4)cc3C3CC3)cc2)cc1 [Example 11, N-[4-(3,5-dicyclopropyl-1H-pyrazol-1-yl)phenyl]-4-(methylsulfonyl)benzamide]",–
100%,"O=C(Nc1c(F)cccc1F)c1ccc(-n2nc(C(F)(F)F)cc2C2CC2)nc1 [Example 122, 6-[5-cyclopropyl-3-(trifluoromethyl)-1H-pyrazol-1-yl]-N-(2,6-difluorophenyl) nicotinamide]",–
100%,"O=C(Nc1ccc(-n2nc(C3CC3)cc2C2CC2)cc1)c1c(F)cccc1F [Example 8, N-[4-(3,5-dicyclopropyl-1H-pyrazol-1-yl)phenyl]-2,6-difluorobenzamide]",–
93.1%,"O=C(Nc1ccc(-n2nc(C3CC3)cc2C2CC2)c(F)c1)c1c(F)cccc1F [Example 33, N-[4-(3,5-dicyclopropyl-1H-pyrazol-1-yl)-3-fluorophenyl]-2,6-difluorobenzamide]",–
73.4%,"O=C(Cc1ccccn1)Nc1ccc(-n2nc(C3CC3)cc2C2CC2)cc1 [Example 22, N-[4-(3,5-dicyclopropyl-1H-pyrazol-1-yl)phenyl]-2-(pyridin-2-yl)acetamide hydrochloride]",–
71.2%,"O=C(Nc1ccc(-n2nc(C(F)(F)F)cc2C2CC2)nc1)c1ccccc1Cl [Example 105, 2-chloro-N-{6-[5-cyclopropyl-3-(trifluoromethyl)-1H-pyrazol-1-yl]pyridin-3-yl}benzamide hydrochloride]",–
0%,"Cc1nnsc1NC(=O)Nc1ccc(-n2nc(C(F)(F)F)cc2C2CC2)cc1 [Example 75, 1-{4-[5-cyclopropyl-3-(trifluoromethyl)-1H-pyrazol-1-yl]phenyl}-3-(4-methyl-1,2,3-thiadiazol-5-yl)urea]",–
10.4%,"O=C(Nc1ccc(-n2nc(C3CC3)cc2C2CC2)nc1)c1ccncc1 [Example 47, N-[6-(3,5-dicyclopropyl-1H-pyrazol-1-yl)pyridin-3-yl]isonicotinamide dihydrochloride]",–
0%,"O=C(Nc1ccc(-n2nc(C(F)(F)F)cc2C2CC2)c(F)c1)C1(c2ccccc2)CCC1 [Example 131, N-{4-[5-cyclopropyl-3-(trifluoromethyl)-1H-pyrazol-1-yl]-3-fluorophenyl}-1-phenylcyclobutanecarboxamide]",–
49.5%,CS(=O)(=O)c1cccc(C(=O)Nc2ccc(-n3nc(C4CC4)cc3C3CC3)cc2)c1 [Example 10],–
85.2%,"Cc1ncoc1C(=O)Nc1ccc(-n2nc(C(F)(F)F)cc2C2CC2)c(F)c1 [Example 132, N-{4-[5-cyclopropyl-3-(trifluoromethyl)-1H-pyrazol-1-yl]-3-fluorophenyl}-4-methyloxazole-5-carboxamide]",–
40.5%,"Cn1ccnc1C(=O)Nc1ccc(-n2nc(C(F)(F)F)cc2C2CC2)cc1 [Example 58, N-{4-[5-cyclopropyl-3-(trifluoromethyl)-1H-pyrazol-1-yl]phenyl}-1-methyl-1H-imidazole-2-carboxamide]",–
28.3%,"Cc1ncsc1C(=O)Nc1cnc(-n2nc(C(F)(F)F)cc2C2CC2)nc1 [Example 129, N-{2-[5-cyclopropyl-3-(trifluoromethyl)-1H-pyrazol-1-yl]pyrimidin-5-yl}-4-methyl thiazole-5-carboxamide]",–
